Literature values as cited in patent publication US20190223486A1, “CATECHIN ABSORPTION ENHANCER FOR ENHANCING CATECHIN ABSORPTION IN SMALL INTESTINAL EPITHELIAL CELLS” (AMOREPACIFIC CORPORATION, priority 2016, published 2019).

Details: in vivo, po

catechin
share of a catechin intake absorbed by the intestines: less than 2%
